The results in this text go back to ChEMBL document CHEMBL2073801, “Chlorpyrifos oxon interacts with the mammalian multidrug resistance protein, P-glycoprotein” (J Toxicol Environ Health, 1996).

Molecules are shown by their SMILES. Entries after “also recorded” stand apart in the source; their conditions may differ.

In data set [1] the target is ATP-dependent translocase ABCB1 (Homo sapiens, UniProt P08183). Briefly: TP_TRANSPORTER: ATP hydrolysis in MDR1-expressing Sf9 cells. The format is functional.
ATP-dependent translocase ABCB1, sequence (P08183 whole entry): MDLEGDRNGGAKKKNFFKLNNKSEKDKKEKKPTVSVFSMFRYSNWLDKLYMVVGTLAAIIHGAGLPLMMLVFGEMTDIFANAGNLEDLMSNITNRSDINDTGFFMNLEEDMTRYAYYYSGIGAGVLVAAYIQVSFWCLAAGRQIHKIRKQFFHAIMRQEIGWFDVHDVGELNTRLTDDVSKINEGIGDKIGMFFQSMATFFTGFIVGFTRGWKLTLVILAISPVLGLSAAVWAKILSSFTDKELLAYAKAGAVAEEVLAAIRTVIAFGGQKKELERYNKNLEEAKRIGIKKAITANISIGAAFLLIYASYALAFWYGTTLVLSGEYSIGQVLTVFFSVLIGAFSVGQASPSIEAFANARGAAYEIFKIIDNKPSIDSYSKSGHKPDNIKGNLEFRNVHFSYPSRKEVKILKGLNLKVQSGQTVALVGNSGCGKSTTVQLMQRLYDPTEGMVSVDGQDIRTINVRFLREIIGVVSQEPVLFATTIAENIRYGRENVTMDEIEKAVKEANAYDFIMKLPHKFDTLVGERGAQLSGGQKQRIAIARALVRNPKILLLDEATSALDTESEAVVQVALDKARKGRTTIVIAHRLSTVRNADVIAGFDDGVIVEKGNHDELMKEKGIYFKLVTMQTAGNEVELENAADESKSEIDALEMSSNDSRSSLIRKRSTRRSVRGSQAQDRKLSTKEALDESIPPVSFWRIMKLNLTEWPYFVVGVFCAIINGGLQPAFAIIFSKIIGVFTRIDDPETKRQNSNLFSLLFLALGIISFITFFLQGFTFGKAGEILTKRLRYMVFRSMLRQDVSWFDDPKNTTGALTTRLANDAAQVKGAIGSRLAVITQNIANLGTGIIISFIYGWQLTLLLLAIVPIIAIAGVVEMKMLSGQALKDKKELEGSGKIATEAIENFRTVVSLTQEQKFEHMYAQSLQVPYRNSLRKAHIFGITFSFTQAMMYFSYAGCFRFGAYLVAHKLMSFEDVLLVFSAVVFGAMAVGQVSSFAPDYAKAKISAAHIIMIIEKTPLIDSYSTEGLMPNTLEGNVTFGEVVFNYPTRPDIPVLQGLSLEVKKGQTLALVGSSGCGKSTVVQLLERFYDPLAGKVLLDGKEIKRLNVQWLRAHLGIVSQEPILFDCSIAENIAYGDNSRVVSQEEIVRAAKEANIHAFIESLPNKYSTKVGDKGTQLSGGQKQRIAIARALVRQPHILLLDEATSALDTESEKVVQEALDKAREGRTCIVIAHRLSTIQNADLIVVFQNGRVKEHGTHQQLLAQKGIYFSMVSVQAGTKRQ
Data set [2] addresses Multidrug resistance protein 1a (Rattus norvegicus) (UniProt Q6PSM0). Briefly: TP_TRANSPORTER: Immunohistochemisty in vivo, stomach of Fischer 344 rat. Format: functional, organism-based.
Data set [3] shares this target. Briefly: TP_TRANSPORTER: Immunohistochemisty in vivo, jejunum of Fischer 344 rat. Format: functional, organism-based.
For data set [4] the target is unchanged. Description: TP_TRANSPORTER: Immunohistochemisty in vivo, adrenals of Fischer 344 rat. Format: functional, organism-based. The following applies: Adrenal tissue.
The target is the same in data set [5]. Briefly: TP_TRANSPORTER: Immunohistochemisty in vivo, kidney of Fischer 344 rat. Format: functional, organism-based.
Data set [6] has the same target. Description: TP_TRANSPORTER: Immunohistochemisty in vivo, liver of Fischer 344 rat. Format: functional, organism-based.

Multidrug resistance protein 1a (Rattus norvegicus), sequence (Q6PSM0 as listed by the source): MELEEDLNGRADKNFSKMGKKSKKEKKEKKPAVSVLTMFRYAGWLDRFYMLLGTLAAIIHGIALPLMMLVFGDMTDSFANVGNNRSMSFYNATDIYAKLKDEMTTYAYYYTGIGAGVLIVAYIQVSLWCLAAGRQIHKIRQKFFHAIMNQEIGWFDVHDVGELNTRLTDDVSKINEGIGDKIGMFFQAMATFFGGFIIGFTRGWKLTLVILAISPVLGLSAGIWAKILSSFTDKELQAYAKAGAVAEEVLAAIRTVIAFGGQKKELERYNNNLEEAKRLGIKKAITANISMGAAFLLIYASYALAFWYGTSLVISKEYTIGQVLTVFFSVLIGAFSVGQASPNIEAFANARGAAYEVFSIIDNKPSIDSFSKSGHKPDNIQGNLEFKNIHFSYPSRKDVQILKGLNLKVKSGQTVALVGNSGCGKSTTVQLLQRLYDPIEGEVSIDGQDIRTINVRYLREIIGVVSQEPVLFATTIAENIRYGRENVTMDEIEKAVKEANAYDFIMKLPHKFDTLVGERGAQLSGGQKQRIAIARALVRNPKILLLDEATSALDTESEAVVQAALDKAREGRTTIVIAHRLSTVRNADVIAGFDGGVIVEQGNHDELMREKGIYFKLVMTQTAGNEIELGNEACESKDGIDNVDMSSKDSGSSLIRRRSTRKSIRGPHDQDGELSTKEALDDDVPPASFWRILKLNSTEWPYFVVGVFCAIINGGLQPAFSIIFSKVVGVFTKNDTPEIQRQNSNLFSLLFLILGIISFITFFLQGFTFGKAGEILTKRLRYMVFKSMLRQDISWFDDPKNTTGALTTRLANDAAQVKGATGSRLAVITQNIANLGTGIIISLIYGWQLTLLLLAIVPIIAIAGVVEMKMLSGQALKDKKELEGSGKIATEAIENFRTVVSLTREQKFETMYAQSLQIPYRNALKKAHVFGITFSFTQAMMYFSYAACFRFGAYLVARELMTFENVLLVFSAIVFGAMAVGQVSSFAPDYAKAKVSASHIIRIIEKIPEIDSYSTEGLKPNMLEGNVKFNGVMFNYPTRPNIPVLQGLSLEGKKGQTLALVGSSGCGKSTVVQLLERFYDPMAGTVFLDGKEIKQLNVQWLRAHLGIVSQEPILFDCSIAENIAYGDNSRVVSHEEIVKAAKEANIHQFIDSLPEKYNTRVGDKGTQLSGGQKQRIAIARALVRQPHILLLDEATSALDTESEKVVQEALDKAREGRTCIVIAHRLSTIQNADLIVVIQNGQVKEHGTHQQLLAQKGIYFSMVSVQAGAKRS

With `CCOP(=S)(OCC)Oc1nc(Cl)c(Cl)cc1Cl` [CHLORPYRIFOS], the Activity result was “substrate [+]; also recorded: is not a substrate [-]” in data set [1]; “inducer [+]” in data set [2]; “inducer [+]” in data set [3]; “inducer [+]” in data set [4]; “inducer [+]” in data set [5]; “inducer [+]” in data set [6].
